Source: patent publication US9056067B2, “Pharmaceutical composition for enhancing immunity, and extract of Poria” (Sinphar Pharmaceutical Co., Ltd., priority 2003, dated 2015)
Values joined by “and” are separate entries in the source; they are usually repeats but may differ in a detail not shown here. Equal values may be shown once.

What was measured:
Type in all cases: in vivo, mice
[1] = system: immune cells (T cells/B cells); assay: Immunity response tests (overall statement); conditions: Table 2 to Table 10
Protocol: The Poria extract and the purified compounds from the Poria extract by chromatography prepared according to the methods of the present invention were tested by various immunity response experiments listed in the following.

IgA = assay: Serum level of IgA (ELISA); conditions: for Effect on serum concentrations of IgA (in words): oral
Protocol: […] […] The control group was the mice feeding with an equal volume of saline (0.85% of NaCl). Mice were sacrificed at day five, and both the serum and spleen cells were collected. The sera were subsequently used to measure the concentration of IgG, IgM and IgA. The spleen cells were plated onto a 100 mm diameter culture plate and incubated at 37° C. for three hours. The non-adherent cells containing T-lymphocytes, B-lymphocytes and NK cells were collected and properly diluted as described in each assay.
(§1) The mouse to be sacrificed was cervical dislocated and sterilized with 70% ethanol. The cardiac punctuation was performed first to withdraw the blood. After the haemagglutination, the blood sample was subjected to centrifugation and the serum was collect. For isolation of spleen cells, the peritoneum was opened to remove the spleen. The fresh spleen was transferred to a culture plate containing 10 ml of RPMI-1640 culture medium. The spleen was then ground over a fine mesh to release the spleen cells. The spleen cells suspending in the medium were then removed and transferred to a 50-ml conical centrifuge tube. The tube was subjected to centrifugation at 1300 rpm for 10 min. The supernatant was discarded and the pellet was re-suspended in 1 ml of cold RBC lysing buffer containing EDTA-NH4Cl. The cells were incubated at room temperature for 10 min, followed by washing the cells three times with culture medium by centrifugation. The spleen cells were plated onto a 100 mm diameter culture plate and incubated at 37° C. for three hours. The non-adherent cells containing T-lymphocytes, B-lymphocytes and NK cells were collected and properly diluted as described in each assay.
An ELISA was performed in our study to measure the immunoglobulin concentration. Briefly, the spleen cells (5×10^5 cells/ml) were cultured in a medium containing RPMI 1640 supplemented with 10% fetal bovine serum (FBS), 2 mM L-glutamine, antibiotics and 5 μg/ml lipopolysaccharide (LPS; 1 μg/10^5 cells) for 5 days. LPS is a polyclonal activator of B lymphocyte. Culture spleen cell supernatants were collected at day 3, 4 and 5. IgA, IgG and IgM concentrations were measured using a sandwich ELISA technique.
The procedure for IgA assay was similar to that for IgG assay, except that the samples were 1/10^4 diluted and standard IgA ranged from 1 μg/ml to 0.0156 μg/ml were added (100 μl/well). The secondary antibody for the assay was HRP-conjugated goat anti-mouse IgA (1:1000 diluted; Zymed Laboratory, CA).

IFN-γ = IFN-γ secretion by Con A-stimulated spleen cells (ELISA) after oral administration; conditions: for IFN-γ secretion by spleen cell: Con A; for Dose with significantly augmented IFNγ secretion by ConA-stimulated splenic T cells: oral
Protocol: For the drug treatment, the animals were divided into four groups and oral administration with 1 ml of PCM, ranging from 10, 40 to 80 mg/kg/day, for four days. […] The control group was the mice feeding with an equal volume of saline (0.85% of NaCl). Mice were sacrificed at day five, and both the serum and spleen cells were collected. The sera were subsequently used to measure the concentration of IgG, IgM and IgA. The spleen cells were plated onto a 100 mm diameter culture plate and incubated at 37° C. for three hours. The non-adherent cells containing T-lymphocytes, B-lymphocytes and NK cells were collected and properly diluted as described in each assay.
as §1
For the quantitative analysis of IFN-γ and IL-10, the spleen cells (1×10^6 cells/ml) were cultured in a medium containing RPMI 1640 supplemented with 10% fetal bovine serum (FBS), 2 mM L-glutamine, antibiotics and 1 μg/ml concanavalin A (Con A) for 3 days. Con A is one of the polyclonal activators for T lymphocyte. Culture spleen cell supernatants were collected. The IFNγ and IL-10 concentrations were measured using a cytokine ELISA set (Cyto Set ELISA kit) purchased from R&D Systems (MN, USA).
Cyto Set ELISA was performed as follows: A 96-well microtiter plate (Nunc-Immuno Plate, MaxiSorp, Nunc, Denmark) was precoated with capture antibodies at 4° C. overnight. The capture antibody was a rat monoclonal antibody to mouse IL-10. The samples to be tested and standard IL-10 ranged from 500 pg/ml to 15.6 pg/ml were added (100 μl/well). The plate was then incubated at 37° C. for 20 min. At the end of incubation, the plate was washed five times, followed by adding the biotinylated goat anti IL-10 polyclonal antibody. The color was developed by incubating the plate with a HRP-conjugated streptoavidin (Zymed, CA, USA), followed by a substrate solution containing hydrogen peroxide and tetramethylbenzidine (TMB). The reaction continued for 30 min at room temperature, and was stopped by adding 100 μl of 2N of sulfuric acid. The absorbence at 450 nm in each well was read using an ELISA reader (EL311, BioTek, Winooski, Vt.), and the data was analyzed using log-logit model.
Cyto Set ELISA of IFN-γ was similar to that of IL-10, except that the capture antibody was a rat monoclonal antibody to mouse IFN-γ, and secondary antibody was biotinylated goat anti IFN-γ polyclonal antibody.
TH1-type cytokines, such as interleukin-2 (IL-2), interferon-γ (IFN-γ) induces the cellular immune response. Whereas, TH2-type cytokines, such as interleukin-4 (IL-4), interleukin-5 (IL-5), interleukin-6 (IL-6), stimulates the B lymphocyte-mediated humoral immune response. […] Spleen cells isolated from the mice treated with PCM and its purified components, such as PCM-K1, -K2, -K3 and K4, were cultured for five days in the presence of ConA. […]

[2] = oral 10 mg/kg/day for four days
[3] = oral 20 mg/kg/day for four days

SMILES: C=C(CC[C@@H](C(=O)O)[C@H]1[C@H](O)C[C@@]2(C)C3=CC[C@H]4C(C)(C)C(=O)CC[C@]4(C)C3=CC[C@]12C)C(C)C [K3]
- Dosage at which potent [1]: potent at dosage low than 2.5 or 5.0
- Immunity enhancement in immune cells (T cells/B cells) (in words) [1]: immunity enhancement activities
- Effect on serum concentrations of IgA (in words) (IgA): no effect
- Serum immunoglobulin concentration IgA (IgA; oral 5 mg/kg/day for four days): 3.65 ± 0.26 mg/mL
- Serum immunoglobulin concentration IgA (IgA; [2]): 3.81 ± 0.46 mg/mL
- Serum immunoglobulin concentration IgA (IgA; [3]): 3.55 ± 0.37 mg/mL
- IFN-γ secretion by spleen cell (IFN-γ; oral 5 mg/kg/day for four days): 917.07 ± 130.41 pg/mL
- IFN-γ secretion by spleen cell (IFN-γ; [2]): 449.74 ± 100.67 pg/mL
- IFN-γ secretion by spleen cell (IFN-γ; [3]): 176.20 ± 45.96 pg/mL
- Dose with significantly augmented IFNγ secretion by ConA-stimulated splenic T cells (IFN-γ; listed as PCM-K3): 5 mg/kg/day and 10 mg/kg/day

SMILES: C=C(CCC(C(=O)O)C1C(O)CC2(C)C3=CCC4C(C)(CCC(O)C4(C)C)C3=CCC12C)C(C)C (centres unmarked) [K4]
- Dosage at which potent [1]: potent at dosage low than 2.5 or 5.0
- Immunity enhancement in immune cells (T cells/B cells) (in words) [1]: immunity enhancement activities
- Effect on serum concentrations of IgA (in words) (IgA): no effect
- Serum immunoglobulin concentration IgA (IgA; oral 5 mg/kg/day for four days): 3.33 ± 0.13 mg/mL
- Serum immunoglobulin concentration IgA (IgA; [2]): 3.39 ± 0.25 mg/mL
- Serum immunoglobulin concentration IgA (IgA; [3]): 3.54 ± 0.12 mg/mL
- Dose with significantly augmented IFNγ secretion by ConA-stimulated splenic T cells (IFN-γ): 20 mg/kg/day
- IFN-γ secretion by spleen cell (IFN-γ; oral 5 mg/kg/day for four days): 240.45 ± 107.83 pg/mL
- IFN-γ secretion by spleen cell (IFN-γ; [2]): 252.26 ± 103.76 pg/mL
- IFN-γ secretion by spleen cell (IFN-γ; [3]): 292.00 ± 77.77 pg/mL
